Measured values as given in US20170342061A1 (CHONGQING PHARMACEUTICAL INDUSTRIAL RESEARCH INSTITUTE CO., …, priority 2014, published 2017).

Experiment: Stability testing of crystal form I of Canagliflozin
Assay type: physicochemical
[1] = placed at 25 ± 2° C. and a humidity of RH92.5% for 30 days
[2] = placed at 40 ± 2° C. for 30 days
[3] = placed at 60 ± 2° C. for 30 days

- HPLC change before placed (before being placed at 25 ± 2° C. and a humidity of RH92.5% for 30 days): 99.89%
- HPLC change before placed (before being placed at 40 ± 2° C. for 30 days): 99.89%
- HPLC change before placed (before being placed at 60 ± 2° C. for 30 days): 99.89%
- stability (overall conclusion from the stability table): good stability
- HPLC change after placed [1]: 99.89%
- crystal form [1]: Crystal form I
- whether the appearance changed [1]: No change
- whether there being apparent moisture absorption [1]: No apparent
- HPLC change after placed [2]: 99.88%
- crystal form [2]: Crystal form I
- whether the appearance changed [2]: No change
- whether there being apparent moisture absorption [2]: No apparent
- HPLC change after placed [3]: 99.87%
- crystal form [3]: Crystal form I
- whether the appearance changed [3]: No change
- whether there being apparent moisture absorption [3]: No apparent
Structure (SMILES): Cc1ccc([C@@H]2O[C@H](CO)[C@@H](O)[C@H](O)[C@H]2O)cc1Cc1ccc(-c2ccc(F)cc2)s1 [crystal form I of Canagliflozin, 1-(β-D-glucopyranosyl)-4-methyl-3-[5-(4-fluorophenyl)-2-thienylmethyl]benzene]
